Measured values as given in patent US12448382B2, “Heterocyclic compounds for mediating tyrosine kinase 2 activity” (GUANGZHOU INNOCARE PHARMA TECH CO., LTD., priority 2019, dated 2025).

What was measured:
[1] = molecular target: T1, human recombinant TYK2 protein (Homo sapiens, UniProt P29597); experiment: TYK2 Inhibition Assay (HTRF kinase assay); type: biochemical; conditions: human recombinant TYK2, 11.25 μM ATP substrate solution
T1 construct: purchased Carna Biosciences 08-147
T1 sequence (P29597 871-1187 limits assumed): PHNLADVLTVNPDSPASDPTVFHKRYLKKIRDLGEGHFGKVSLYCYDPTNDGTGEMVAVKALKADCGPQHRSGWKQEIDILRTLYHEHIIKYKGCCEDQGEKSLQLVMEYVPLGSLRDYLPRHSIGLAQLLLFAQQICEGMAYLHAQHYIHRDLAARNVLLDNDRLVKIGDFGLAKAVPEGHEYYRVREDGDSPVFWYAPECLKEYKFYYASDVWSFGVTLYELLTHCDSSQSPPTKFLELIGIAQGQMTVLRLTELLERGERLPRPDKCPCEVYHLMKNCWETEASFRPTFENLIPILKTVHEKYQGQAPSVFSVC
In short: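 Recombinant human TYK2 was pre-incubated 15 min at room temperature with compound, then reacted for 40 min with biotinylated tyrosine-kinase substrate and ATP (substrate solution 11.25 μM ATP, 0.5 μM substrate; 5 mM MgCl2, 0.01% Brij35). Phosphorylation was read by HTRF 665/620 ratio, normalised to no-enzyme and no-compound controls, and IC50 was fitted from 8 4-fold dilutions.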

[2] = test system: IL-12-induced IFN-γ secretion in NK92 cells; experiment: Inhibition of IL-12-induced IFN-γ Secretion in NK92 Cells (ELISA); type: cell-based, human; conditions: Homo sapiens, 24 hours incubation, 8 concentration points, read-out: IC50 (NK92_IL12/IFNγ)
In short: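 NK92 cells (100,000/well, IL-2-free medium) rested overnight, then treated with compound plus IL-12 for 24 h at 37 °C. Secreted IFN-γ measured in supernatant by ELISA. Inhibition normalized to unstimulated and IL-12/0.2% DMSO controls; IC50 fitted from 8 concentrations.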

[3] = molecular target: T2, human recombinant JAK2 protein (Homo sapiens, UniProt O60674); experiment: JAK2 Inhibition Assay (HTRF kinase assay); type: biochemical; conditions: human recombinant JAK2, 2.5 μM ATP substrate solution
T2 construct: purchased Carna Biosciences 08-045
T2 sequence (O60674 826-1132 limits assumed): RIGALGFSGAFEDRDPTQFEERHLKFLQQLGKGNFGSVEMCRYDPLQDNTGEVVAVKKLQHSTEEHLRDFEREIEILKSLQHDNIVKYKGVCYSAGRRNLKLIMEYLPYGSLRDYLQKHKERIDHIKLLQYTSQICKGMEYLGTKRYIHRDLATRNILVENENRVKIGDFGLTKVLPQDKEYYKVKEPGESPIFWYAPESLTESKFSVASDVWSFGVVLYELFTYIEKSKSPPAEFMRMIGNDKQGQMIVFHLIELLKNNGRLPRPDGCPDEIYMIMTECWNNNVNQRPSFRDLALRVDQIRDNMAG
In short: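 Recombinant human JAK2 was preincubated 15 min at room temperature with compound in buffer containing 5 mM MgCl2, 1 mM DTT and 0.01% Brij35. Substrate solution (2.5 μM ATP, 0.25 μM biotinylated TK substrate) was then added for 30 min. Phosphorylation was detected by HTRF (665/620 nm ratio; no-enzyme = 100% inhibition), and IC50 was fitted from an 8-point, 4-fold series.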

| IC50 [1] [nM] | IC50 [2] [nM] | IC50 [3] [nM] | SMILES |
| --- | --- | --- | --- |
| 0.2 | 67 | 0.5 | Cn1cc(Nc2ncc(Cl)c(N3C[C@@H]4CN(C(=O)CC#N)C[C@]4(C)C3)n2)cn1 [Compound 88, 3-((3aS,6aR)-5-(5-chloro-2-((1-methyl-1H-pyrazol-4-yl)amino)pyrimidin-4-yl)-3a-methylhexahydropyrrolo[3,4-c]pyrrol-2(1H)-yl)-3-oxopropanenitrile] |
| 21 | 6770 | 137 | Cn1cc(Nc2ncc(F)c(N3C[C@]4(C)CN(C(=O)C5CC5)C[C@]4(C)C3)n2)cn1 [Compound 11] |
| 12 | 2100 | 15 | COCC(=O)N1C[C@@]2(C)CN(c3nc(Nc4cnn(C)c4)ncc3Cl)C[C@@]2(C)C1 [Compound 37, 1-((3aR,6aS)-5-(5-chloro-2-((1-methyl-1H-pyrazol-4-yl)amino)pyrimidin-4-yl)-3a,6a-dimethylhexahydropyrrolo[3,4-c]pyrrol-2(1H)-yl)-2-methoxyethan-1-one] |
| 0.5 | 162 | 3.3 | Cn1cc(Nc2ncc(Cl)c(N3C[C@@H]4CN(C(=O)c5ccno5)C[C@]4(C)C3)n2)cn1 (racemic) [Compound 64, cis-(5-(5-chloro-2-((1-methyl-1H-pyrazol-4-yl)amino)pyrimidin-4-yl)-3a-methylhexahydropyrrolo[3,4-c]pyrrol-2(1H)-yl)(isoxazol-5-yl)methanone] |
| 4.5 | 3390 | 18 | Cn1cc(Nc2ncc(Cl)c(N3C[C@]4(C)CN(C(=O)C5(O)CC5)C[C@]4(C)C3)n2)cn1 [Compound 43, ((3aR,6aS)-5-(5-chloro-2-((1-methyl-1H-pyrazol-4-yl)amino)pyrimidin-4-yl)-3a,6a-dimethylhexahydropyrrolo[3,4-c]pyrrol-2(1H)-yl)(1-hydroxycyclopropyl)methanone] |
| 3.3 | 278 | 6 | Cc1cnc(Nc2cnn(C)c2)nc1N1C[C@@H]2CN(Cc3ccno3)C[C@]2(C)C1 (racemic) [Compound 73, cis-4-(5-(isoxazol-5-ylmethyl)-3a-methylhexahydropyrrolo[3,4-c]pyrrol-2(1H)-yl)-5-methyl-N-(1-methyl-1H-pyrazol-4-yl)pyrimidin-2-amine] |
| 42 | 5850 | 19 | C[C@@]12CN(C(=O)C3CC3)C[C@]1(C)CN(c1nc(Nc3cc[nH]n3)ncc1Cl)C2 [Compound 95, ((3aR,6aS)-5-(2-((1H-pyrazol-3-yl)amino)-5-chloropyrimidin-4-yl)-3a,6a-dimethylhexahydropyrrolo-[3,4-c]pyrrol-2(1H)-yl)(cyclopropyl)methanone] |
| 1.1 | 398 | 4.1 | Cn1cc(Nc2ncc(Cl)c(N3C[C@@]4(C)CN(CC#N)C(=O)[C@@]4(C)C3)n2)cn1 (racemic) [Compound 92, cis-2-(5-(5-Chloro-2-((1-methyl-1H-pyrazol-4-yl)amino)pyrimidin-4-yl)-3a,6a-dimethyl-1-oxohexahydropyrrolo[3,4-c]pyrrol-2(1H)-yl)acetonitrile] |
| 0.6 | 269 | 2.6 | Cn1cc(Nc2ncc(Cl)c(N3C[C@H]4CN(C(=O)C5CC5)C[C@@]4(C)C3)n2)cn1 (racemic) [Compound 62, cis-(5-(5-chloro-2-((1-methyl-1H-pyrazol-4-yl)amino)pyrimidin-4-yl)-3a-methylhexahydropyrrolo[3,4-c]pyrrol-2(1H)-yl)(cyclopropyl)methanone] |
| 2 | 490 | 10 | Cn1cc(Nc2ncc(Cl)c(N3C[C@]4(C)CN(C(=O)[C@H]5CC5(F)F)C[C@]4(C)C3)n2)cn1 [Compound 21] |
| 13 | 7920 | 51 | Cn1cc(Nc2ncc(Cl)c(N3C[C@]4(C)CN(C(=O)c5ccccn5)C[C@]4(C)C3)n2)cn1 [Compound 47, ((3aR,6aS)-5-(5-chloro-2-((1-methyl-1H-pyrazol-4-yl)amino)pyrimidin-4-yl)-3a,6a-dimethylhexahydropyrrolo[3,4-c]pyrrol-2(1H)-yl)(pyridin-2-yl)methanone] |
| 12 | 5390 | 19 | Cn1cc(Nc2ncc(Cl)c(N3C[C@]4(C)CN(C(=O)C(C)(C)C#N)C[C@]4(C)C3)n2)cn1 [Compound 45, 3-((3aR,6aS)-5-(5-chloro-2-((1-methyl-1H-pyrazol-4-yl)amino)pyrimidin-4-yl)-3a,6a-dimethylhexahydropyrrolo[3,4-c]pyrrol-2(1H)-yl)-2,2-dimethyl-3-oxopropanenitrile] |
| 3.4 | 824 | 4.5 | Cc1cnc(Nc2cnn(C)c2)nc1N1C[C@@H]2CN(C(=O)[C@@H]3CC3(F)F)C[C@]2(C)C1 (racemic) [Compound 72] |
| 0.3 | 267 | 1.2 | Cn1cc(Nc2ncc(Cl)c(N3C[C@@H]4CN(C(=O)CC#N)C[C@]4(C)C3)n2)cn1 (racemic) [Compound 63, cis-3-(5-(5-chloro-2-((1-methyl-IH-pyrazol-4-yl)amino)pyrimidin-4-yl)-3a-methylhexahydropyrrolo[3,4-c]pyrrol-2(1H)-yl)-3-oxopropanenitrile] |
| 1.6 | 617 | 3.5 | C[C@H](O)Cn1cc(Nc2ncc(Cl)c(N3C[C@]4(C)CN(C(=O)C5CC5)C[C@]4(C)C3)n2)cn1 [Compound 18] |
| 50 | 3970 | 16 | Cn1cc(Nc2ncc(Cl)c(N3C[C@]4(C)CN(Cc5cc[nH]n5)C[C@]4(C)C3)n2)cn1 [Compound 81, 4-((3aR,6aS)-5-((1H-pyrazol-3-yl)methyl)-3a,6a-dimethylhexahydropyrrolo[3,4-c]pyrrol-2(1H)-yl)-5-chloro-N-(1-methyl-1H-pyrazol-4-yl)pyrimidin-2-amine] |
| 0.5 | 2780 | 0.4 | C[C@@]12CN(C(=O)CC#N)C[C@]1(C)CN(c1nc(Nc3cnn(CCO)c3)ncc1Cl)C2 [Compound 31, 3-((3aR,6aS)-5-(5-chloro-2-((1-(2-hydroxyethyl)-1H-pyrazol-4-yl)amino)pyrimidin-4-yl)-3a,6a-dimethylhexahydropyrrolo[3,4-c]pyrrol-2(1H)-yl)-3-oxopropanenitrile] |
| 5.7 | 3470 | 20 | Cn1cc(Nc2ncc(Cl)c(N3C[C@]4(C)CN(C(=O)C5(C#N)CC5)C[C@]4(C)C3)n2)cn1 [Compound 42, 1-((3aR,6aS)-5-(5-chloro-2-((1-methyl-1H-pyrazol-4-yl)amino)pyrimidin-4-yl)-3a,6a-dimethyloctahydropyrrolo[3,4-c]pyrrole-2-carbonyl)cyclopropane-1-carbonitrile] |
| 0.8 | 305 | 1.4 | Cn1cc(Nc2ncc(Cl)c(N3C[C@]4(C)CN(C(=O)[C@@H]5CC5(F)F)C[C@]4(C)C3)n2)cn1 [Compound 22, ((3aR,6aS)-5-(5-chloro-2-((1-methyl-1H-pyrazol-4-yl)amino)pyrimidin-4-yl)-3a,6a-dimethylhexahydropyrrolo[3,4-c]pyrrol-2(1H)-yl)((S)-2,2-difluorocyclopropyl)methanone] |
| 0.2 | 66 | 0.3 | Cn1cc(Nc2ncc(Cl)c(N3C[C@]4(C)CN(c5ccno5)C[C@]4(C)C3)n2)cn1 [Compound 66] |
| 0.1 | 516 | 0.7 | C[C@]12CN(C(=O)CC#N)C[C@H]1CN(c1nc(Nc3cn[nH]c3)ncc1Cl)C2 [Compound 98, 3-((3aS,6aR)-5-(2-((1H-pyrazol-4-yl)amino)-5-chloropyrimidin-4-yl)-3a-methylhexahydropyrrolo[3,4-c]pyrrol-2(1H)-yl)-3-oxopropanenitrile] |
| 0.1 | 158 | 0.5 | [2H]C([2H])([2H])n1cc(Nc2ncc(Cl)c(N3C[C@@H]4CN(C(=O)CC#N)C[C@]4(C)C3)n2)cn1 [Compound 99, 3-((3aS,6aR)-5-(5-chloro-2-((1-(methyl-d3)-1H-pyrazol-4-yl)amino)pyrimidin-4-yl)-3a-methylhexahydropyrrolo[3,4-c]pyrrol-2(1H)-yl)-3-oxopropanenitrile] |
| 3.2 | 388 | 2.6 | Cn1cc(Nc2ncc(Cl)c(N3C[C@H]4CN(C(=O)[C@@H]5CC5(F)F)C[C@@]4(C)C3)n2)cn1 [Compound 91, ((3aR,6aS)-5-(5-chloro-2-((1-methyl-1H-pyrazol-4-yl)amino)pyrimidin-4-yl)-3a-methylhexahydropyrrolo[3,4-c]pyrrol-2(1H)-yl)((S)-2,2-difluorocyclopropyl)methanone] |
